{
  "source": "the supplement of paper PMC11208160",
  "data": [
    {"experiment": "recombinant UMI read abundance after kanamycin selection (control-corrected) (log10(CPM+1)); higher = more efficient recombination; extreme values may be limits of the assay; sequences stand for … in AGTGCAGAGAAAATCGGCCAGTTTTCTCTGCCTGCAGTCCGCATGCCGTGGGACCCCTTGGGTTCTAACCTGTTGCCTAGATTTATGCAGCGGACTGCCTTTCTCCCAAAGTGATAAACCGG…AGGTTGGTTTCACT; site = the 11-nt donor", "method_in_brief": "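Counts of recombinant UMIs were reported as log10(CPM+1). Before that, they were converted to CPM, averaged over replicates and scaled using control-derived factors. They came from PCR across the donor–target junction after Escherichia coli carrying the pair library and target plasmid was plated on IPTG (0.07 mM) plus kanamycin, or unselected, in two replicates each.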", "values": [
      {"sequence": "GGAGCGGCATGGACCGGTTTTCCCGGTAATCCGTATTTGGT (site GGAGAGGCTAC)", "recombinant UMI read abundance (log10)": 0},
      {"sequence": "GGAGCGGCATGGACCGGTTTTCCCGGTAATCCGTATTTGGT (site GGAGCGGCTAC)", "recombinant UMI read abundance (log10)": 0.387},
      {"sequence": "GGAGCGGCATGGACCGGTTTTCCCGGTAATCCGTATTTGGT (site GGAGGGGCTAC)", "recombinant UMI read abundance (log10)": 0.00705},
      {"sequence": "GGAGCGGCATGGACCGGTTTTCCCGGTAATCCGTATTTGGT (site GGAGTGGCTAC)", "recombinant UMI read abundance (log10)": 0.101},
      {"sequence": "GGAGGTTCATGGACCGGTTTTCCCGGTAATCCGTATTTGAA (site GGAGGTTCTTT)", "recombinant UMI read abundance (log10)": 1.66},
      {"sequence": "GGAGTGCCATGGACCGGTTTTCCCGGTAATCCGTATTTGGT (site GGAGTGACTAC)", "recombinant UMI read abundance (log10)": 0.00343},
      {"sequence": "GGAGTGCCATGGACCGGTTTTCCCGGTAATCCGTATTTGGT (site GGAGTGCCTAC)", "recombinant UMI read abundance (log10)": 0.0291},
      {"sequence": "GGAGTGCCATGGACCGGTTTTCCCGGTAATCCGTATTTGGT (site GGAGTGGCTAC)", "recombinant UMI read abundance (log10)": 0.00926},
      {"sequence": "GGAGTGCCATGGACCGGTTTTCCCGGTAATCCGTATTTGGT (site GGAGTGTCTAC)", "recombinant UMI read abundance (log10)": 1.21},
      {"sequence": "GGAGTGGCATGGACCGGTTTTCCCGGTAATCCGTATTTGGA (site GGAGTGGCTAC)", "recombinant UMI read abundance (log10)": 0.0116},
      {"sequence": "GGAGTGGCATGGACCGGTTTTCCCGGTAATCCGTATTTGGA (site GGAGTGGCTCC)", "recombinant UMI read abundance (log10)": 0.019},
      {"sequence": "GGAGTGGCATGGACCGGTTTTCCCGGTAATCCGTATTTGGA (site GGAGTGGCTGC)", "recombinant UMI read abundance (log10)": 0},
      {"sequence": "GGAGTGGCATGGACCGGTTTTCCCGGTAATCCGTATTTGGA (site GGAGTGGCTTC)", "recombinant UMI read abundance (log10)": 0.645},
      {"sequence": "GGATATACATGGACCGGTTTTCCCGGTAATCCGTATTTGCC (site GGATAAACTGG)", "recombinant UMI read abundance (log10)": 0},
      {"sequence": "GGATATACATGGACCGGTTTTCCCGGTAATCCGTATTTGCC (site GGATACACTGG)", "recombinant UMI read abundance (log10)": 0.982},
      {"sequence": "GGATATACATGGACCGGTTTTCCCGGTAATCCGTATTTGCC (site GGATAGACTGG)", "recombinant UMI read abundance (log10)": 0.756},
      {"sequence": "GGATATACATGGACCGGTTTTCCCGGTAATCCGTATTTGCC (site GGATATACTGG)", "recombinant UMI read abundance (log10)": 1.81},
      {"sequence": "GGATCACCATGGACCGGTTTTCCCGGTAATCCGTATTTGCT (site CGATCATCTAG)", "recombinant UMI read abundance (log10)": 0},
      {"sequence": "GGATCACCATGGACCGGTTTTCCCGGTAATCCGTATTTGCT (site GGATCACCTAG)", "recombinant UMI read abundance (log10)": 0.0128},
      {"sequence": "GGATCAGCATGGACCGGTTTTCCCGGTAATCCGTATTTGAA (site GGATCAGCTTT)", "recombinant UMI read abundance (log10)": 1.19},
      {"sequence": "GGATCATCATGGACCGGTTTTCCCGGTAATCCGTATTTGCC (site CGATCATCTAG)", "recombinant UMI read abundance (log10)": 0},
      {"sequence": "GGATCATCATGGACCGGTTTTCCCGGTAATCCGTATTTGCC (site GGATCATCTGG)", "recombinant UMI read abundance (log10)": 0.722},
      {"sequence": "GGATCGTCATGGACCGGTTTTCCCGGTAATCCGTATTTGCC (site GGATCGTCTGG)", "recombinant UMI read abundance (log10)": 2.05},
      {"sequence": "GGATGCACATGGACCGGTTTTCCCGGTAATCCGTATTTGTA (site GAATGCACTTA)", "recombinant UMI read abundance (log10)": 0.31},
      {"sequence": "GGATGCACATGGACCGGTTTTCCCGGTAATCCGTATTTGTA (site GCATGCACTTA)", "recombinant UMI read abundance (log10)": 0.0182},
      {"sequence": "GGATGCACATGGACCGGTTTTCCCGGTAATCCGTATTTGTA (site GGATGCACTTA)", "recombinant UMI read abundance (log10)": 1.62},
      {"sequence": "GGATGCACATGGACCGGTTTTCCCGGTAATCCGTATTTGTA (site GTATGCACTTA)", "recombinant UMI read abundance (log10)": 0.439},
      {"sequence": "GGATGCTCATGGACCGGTTTTCCCGGTAATCCGTATTTGCT (site GGATGCTCTAG)", "recombinant UMI read abundance (log10)": 3},
      {"sequence": "GGATTTACATGGACCGGTTTTCCCGGTAATCCGTATTTGAG (site GGATTTACTCT)", "recombinant UMI read abundance (log10)": 0.713},
      {"sequence": "GGCAAATCATGGACCGGTTTTCCCGGTAATCCGTATTTGCT (site GGCAAATCTAG)", "recombinant UMI read abundance (log10)": 0},
      {"sequence": "GGCAACCCATGGACCGGTTTTCCCGGTAATCCGTATTTGTT (site GGCAACCCTAA)", "recombinant UMI read abundance (log10)": 0.0163},
      {"sequence": "GGCAACCCATGGACCGGTTTTCCCGGTAATCCGTATTTGTT (site GGCCACCCTAA)", "recombinant UMI read abundance (log10)": 0.0118},
      {"sequence": "GGCAACCCATGGACCGGTTTTCCCGGTAATCCGTATTTGTT (site GGCGACCCTAA)", "recombinant UMI read abundance (log10)": 0.0135},
      {"sequence": "GGCAACCCATGGACCGGTTTTCCCGGTAATCCGTATTTGTT (site GGCTACCCTAA)", "recombinant UMI read abundance (log10)": 0.0252},
      {"sequence": "GGCAATACATGGACCGGTTTTCCCGGTAATCCGTATTTGAA (site GGCAATACTTT)", "recombinant UMI read abundance (log10)": 0.862},
      {"sequence": "GGCAATACATGGACCGGTTTTCCCGGTAATCCGTATTTGAA (site GGCAATCCTTT)", "recombinant UMI read abundance (log10)": 0.00332},
      {"sequence": "GGCAATACATGGACCGGTTTTCCCGGTAATCCGTATTTGAA (site GGCAATGCTTT)", "recombinant UMI read abundance (log10)": 0},
      {"sequence": "GGCAATACATGGACCGGTTTTCCCGGTAATCCGTATTTGAA (site GGCAATTCTTT)", "recombinant UMI read abundance (log10)": 0},
      {"sequence": "GGCAATCCATGGACCGGTTTTCCCGGTAATCCGTATTTGAA (site AGCAATCCTTT)", "recombinant UMI read abundance (log10)": 0.00634},
      {"sequence": "GGCAATCCATGGACCGGTTTTCCCGGTAATCCGTATTTGAA (site CGCAATCCTTT)", "recombinant UMI read abundance (log10)": 0},
      {"sequence": "GGCAATCCATGGACCGGTTTTCCCGGTAATCCGTATTTGAA (site GACAATCCTTT)", "recombinant UMI read abundance (log10)": 0},
      {"sequence": "GGCAATCCATGGACCGGTTTTCCCGGTAATCCGTATTTGAA (site GCCAATCCTTT)", "recombinant UMI read abundance (log10)": 0},
      {"sequence": "GGCAATCCATGGACCGGTTTTCCCGGTAATCCGTATTTGAA (site GGAAATCCTTT)", "recombinant UMI read abundance (log10)": 0},
      {"sequence": "GGCAATCCATGGACCGGTTTTCCCGGTAATCCGTATTTGAA (site GGCAAACCTTT)", "recombinant UMI read abundance (log10)": 0},
      {"sequence": "GGCAATCCATGGACCGGTTTTCCCGGTAATCCGTATTTGAA (site GGCAACCCTTT)", "recombinant UMI read abundance (log10)": 0.00936},
      {"sequence": "GGCAATCCATGGACCGGTTTTCCCGGTAATCCGTATTTGAA (site GGCAAGCCTTT)", "recombinant UMI read abundance (log10)": 0.0191},
      {"sequence": "GGCAATCCATGGACCGGTTTTCCCGGTAATCCGTATTTGAA (site GGCAATACTTT)", "recombinant UMI read abundance (log10)": 0.0044},
      {"sequence": "GGCAATCCATGGACCGGTTTTCCCGGTAATCCGTATTTGAA (site GGCAATCCTAT)", "recombinant UMI read abundance (log10)": 0},
      {"sequence": "GGCAATCCATGGACCGGTTTTCCCGGTAATCCGTATTTGAA (site GGCAATCCTCT)", "recombinant UMI read abundance (log10)": 0.0139},
      {"sequence": "GGCAATCCATGGACCGGTTTTCCCGGTAATCCGTATTTGAA (site GGCAATCCTGT)", "recombinant UMI read abundance (log10)": 0},
      {"sequence": "GGCAATCCATGGACCGGTTTTCCCGGTAATCCGTATTTGAA (site GGCAATCCTTA)", "recombinant UMI read abundance (log10)": 0.00549},
      {"sequence": "GGCAATCCATGGACCGGTTTTCCCGGTAATCCGTATTTGAA (site GGCAATCCTTC)", "recombinant UMI read abundance (log10)": 0.00387},
      {"sequence": "GGCAATCCATGGACCGGTTTTCCCGGTAATCCGTATTTGAA (site GGCAATCCTTG)", "recombinant UMI read abundance (log10)": 0},
      {"sequence": "GGCAATCCATGGACCGGTTTTCCCGGTAATCCGTATTTGAA (site GGCAATCCTTT)", "recombinant UMI read abundance (log10)": 0.434},
      {"sequence": "GGCAATCCATGGACCGGTTTTCCCGGTAATCCGTATTTGAA (site GGCAATGCTTT)", "recombinant UMI read abundance (log10)": 0.00508},
      {"sequence": "GGCAATCCATGGACCGGTTTTCCCGGTAATCCGTATTTGAA (site GGCAATTCTTT)", "recombinant UMI read abundance (log10)": 0},
      {"sequence": "GGCAATCCATGGACCGGTTTTCCCGGTAATCCGTATTTGAA (site GGCACTCCTTT)", "recombinant UMI read abundance (log10)": 0},
      {"sequence": "GGCAATCCATGGACCGGTTTTCCCGGTAATCCGTATTTGAA (site GGCAGTCCTTT)", "recombinant UMI read abundance (log10)": 0},
      {"sequence": "GGCAATCCATGGACCGGTTTTCCCGGTAATCCGTATTTGAA (site GGCATTCCTTT)", "recombinant UMI read abundance (log10)": 0.0126},
      {"sequence": "GGCAATCCATGGACCGGTTTTCCCGGTAATCCGTATTTGAA (site GGCCATCCTTT)", "recombinant UMI read abundance (log10)": 0.0223},
      {"sequence": "GGCAATCCATGGACCGGTTTTCCCGGTAATCCGTATTTGAA (site GGCGATCCTTT)", "recombinant UMI read abundance (log10)": 0},
      {"sequence": "GGCAATCCATGGACCGGTTTTCCCGGTAATCCGTATTTGAA (site GGCTATCCTTT)", "recombinant UMI read abundance (log10)": 0.316},
      {"sequence": "GGCAATCCATGGACCGGTTTTCCCGGTAATCCGTATTTGAA (site GGGAATCCTTT)", "recombinant UMI read abundance (log10)": 0.0169},
      {"sequence": "GGCAATCCATGGACCGGTTTTCCCGGTAATCCGTATTTGAA (site GGTAATCCTTT)", "recombinant UMI read abundance (log10)": 0.00354},
      {"sequence": "GGCAATCCATGGACCGGTTTTCCCGGTAATCCGTATTTGAA (site GTCAATCCTTT)", "recombinant UMI read abundance (log10)": 0.236},
      {"sequence": "GGCAATCCATGGACCGGTTTTCCCGGTAATCCGTATTTGAA (site TGCAATCCTTT)", "recombinant UMI read abundance (log10)": 0.0119},
      {"sequence": "GGCACTCCATGGACCGGTTTTCCCGGTAATCCGTATTTGAA (site GGCAATCCTTT)", "recombinant UMI read abundance (log10)": 0},
      {"sequence": "GGCACTCCATGGACCGGTTTTCCCGGTAATCCGTATTTGAA (site GGCACTCCTTT)", "recombinant UMI read abundance (log10)": 0.248}
    ]}
  ]
}
